Measurements: article PMC6627486, “Ipomoeassin F Binds Sec61α to Inhibit Protein Translocation” (Journal of the American Chemical Society, 2019)
Read-outs that look alike come from different tables or passages of the source.

Tests used:
Sec61α = target: T1, Sec61α (Homo sapiens, UniProt P61619); assay: Live cell-based biotin affinity pulldown in MDA-MB-231 cells; format: binding; settings: live MDA-MB-231 cells
T1 construct: enabling a biotin analogue of ipomoeassin F to pull down Sec61α from live cells; endogenous in cells; host or cells: MDA-MB-231
Protocol: Activity Based Protein Profiling
MDA-MB-231 cells were seeded in five groups of 6 cm petri dishes with 3 ml DMEM high glucose culture and incubated at 37 °C and 5% CO2 until 90% confluency. […]
After 1 h incubation at 37 °C […]
and 5% CO2, the cells were harvested by scraping and washed with cold PBS for 3 times. The cells were then lysed in 100 µl of lysis buffer 1 (50 mM Hepes, pH 9.0, 100 mM NaCl, 10% glycerol, 5 mM MgCl2, 1 mM CaCl2, 0.2% NP40, 1x protease inhibitor) using ultrasound sonication. The supernatant of each group was collected after centrifugation at 21,100 g and 4 °C for 10 min, and the protein concentration was quantified with a BCA kit. 10% SDS was then added into protein solution to make a final SDS concentration of 0.4%, and the solution was incubated at 95 °C for 5 min. […]
According to the experimental needs, MDA-MB-231 cells were seeded into 3-7 groups of 15-cm tissue-culture dishes and incubated at 37 °C and 5% CO2 until 90% confluency. […] The supernatant of each group was collected after centrifugation at 4 °C and 21,100 g for 10 min, and the protein concentration was quantified with the BCA kit. […]
rotation. […] The other part was analyzed by Western blotting, in which proteins on the nitrocellulose membrane were visualized by either fluorescently labeled streptavidin or an anti-Sec61α antibody. […]

MDA-MB-231 = assay: AlamarBlue cytotoxicity assay, MDA-MB-231; format: cell-based, human; settings: Homo sapiens, MDA-MB-231, 72 h, read-out: Cytotoxicity (IC50)
Protocol: AlamarBlue Cytotoxicity Assay
MDA-MB-231, MCF-10A and HCT116. Viable cells were counted with a hemocytometer immediately before each experiment . Experiments were done in triplicate. First, 100 μL of MDA-MB-231 cells or MCF-10A cells at the density of 50,000 cells/mL was seeded in a 96-well plate (5,000 cells/well) and then incubated at 37 °C and 5% CO2 for 24 h. The compounds were dissolved in DMSO (dimethyl sulfoxide) to make drug stocks (10 mM). The stock solutions were diluted with the complete DMEM high glucose culture medium to make a series of gradient fresh working solutions right before each test. Subsequently, the cells were treated with 100 μL of the freshly made gradient working solution in a total volume of 200 μL/well for 72 h. After that, the media were discarded and 200 μL of the fresh complete medium containing 10% of AlamarBlue (resazurin) stock solution was added to each well. The plate was then incubated at 37 °C and 5% CO2 for another 3 h. Emission of each well at 620 nm was detected by a microplate reader (BioTek Synergy H1) at excitation 580 nm. […]
Microplate Reader. The percentage of viability compared to the negative control (DMSO-treated cells) […]
was determined. […]

T1 sequence (P60468 whole entry): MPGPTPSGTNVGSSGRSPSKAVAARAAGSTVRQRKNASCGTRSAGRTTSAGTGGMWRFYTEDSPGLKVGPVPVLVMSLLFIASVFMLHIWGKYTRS
T1 sequence (P60059 whole entry, further chain): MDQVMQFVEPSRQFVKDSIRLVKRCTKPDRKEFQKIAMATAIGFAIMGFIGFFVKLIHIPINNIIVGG
T1 sequence (P61619 whole entry): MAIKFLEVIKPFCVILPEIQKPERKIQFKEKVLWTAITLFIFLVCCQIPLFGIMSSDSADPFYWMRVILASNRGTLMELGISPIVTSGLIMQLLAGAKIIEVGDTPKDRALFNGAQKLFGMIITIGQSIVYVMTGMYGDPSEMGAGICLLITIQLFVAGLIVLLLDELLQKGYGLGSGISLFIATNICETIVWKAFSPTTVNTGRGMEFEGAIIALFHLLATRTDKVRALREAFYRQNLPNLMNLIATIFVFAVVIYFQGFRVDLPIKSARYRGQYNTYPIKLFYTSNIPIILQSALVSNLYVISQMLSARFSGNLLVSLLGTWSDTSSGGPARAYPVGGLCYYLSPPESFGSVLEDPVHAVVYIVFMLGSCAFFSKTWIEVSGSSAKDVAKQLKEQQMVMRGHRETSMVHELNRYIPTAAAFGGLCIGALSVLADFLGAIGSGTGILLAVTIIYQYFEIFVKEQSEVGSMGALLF

Row | SMILES | recovery of ∼40 kDa protein (Sec61α) by biotin probe in streptavidin pulldown (Sec61α; 9 at 500 nM) | IC50 (MDA-MB-231; AlamarBlue) [nM] | competition with probe 7 in pulldown of ∼40 kDa protein (Sec61α; 10 nM 7 + 50 nM ipomoeassin F, 20 nM 7 + 1 μM 8) | IC50 (MDA-MB-231) [nM]
1 | C/C=C(\C)C(=O)O[C@H]1[C@H](OC(=O)/C=C/c2ccc(OCc3cn(CCOCCOCCOCCNC(=O)CCCC[C@@H]4SC[C@@H]5NC(=O)N[C@@H]54)nn3)cc2)[C@@H](O)[C@@H]2O[C@H]3[C@H](O[C@@H](CCCCC)CCCCCCC(=O)CCC(=O)OC[C@H]1O2)O[C@H](C)[C@H](OC(C)=O)[C@@H]3O [compound 5] | no proteins were selectively enriched | 29.5 |  | 
2 | C/C=C(\C)C(=O)O[C@@H]1[C@@H](O)[C@@H]2O[C@H]3[C@H](O[C@@H](CCCCC)CCCCCCC(=O)CCC(=O)OC[C@@H](O2)[C@H]1OC(=O)/C=C/c1ccccc1)O[C@H](C)[C@H](OC(C)=O)[C@@H]3O [ipomoeassin F] |  |  | outcompeted by a 5-fold excess | 6.3
